The source of these data is EP4741383A1, “COMPOUND AND USE THEREOF AS ANTI-CANCER DRUG” (Tyligand Bioscience (Shanghai) Limited, priority 2023, dated 2025).

The first assay has as its target T1, MEG2 (Homo sapiens, UniProt P43378).
T1 construct: made in house; host or cells: E. coli
T1 sequence (P43378 1-593): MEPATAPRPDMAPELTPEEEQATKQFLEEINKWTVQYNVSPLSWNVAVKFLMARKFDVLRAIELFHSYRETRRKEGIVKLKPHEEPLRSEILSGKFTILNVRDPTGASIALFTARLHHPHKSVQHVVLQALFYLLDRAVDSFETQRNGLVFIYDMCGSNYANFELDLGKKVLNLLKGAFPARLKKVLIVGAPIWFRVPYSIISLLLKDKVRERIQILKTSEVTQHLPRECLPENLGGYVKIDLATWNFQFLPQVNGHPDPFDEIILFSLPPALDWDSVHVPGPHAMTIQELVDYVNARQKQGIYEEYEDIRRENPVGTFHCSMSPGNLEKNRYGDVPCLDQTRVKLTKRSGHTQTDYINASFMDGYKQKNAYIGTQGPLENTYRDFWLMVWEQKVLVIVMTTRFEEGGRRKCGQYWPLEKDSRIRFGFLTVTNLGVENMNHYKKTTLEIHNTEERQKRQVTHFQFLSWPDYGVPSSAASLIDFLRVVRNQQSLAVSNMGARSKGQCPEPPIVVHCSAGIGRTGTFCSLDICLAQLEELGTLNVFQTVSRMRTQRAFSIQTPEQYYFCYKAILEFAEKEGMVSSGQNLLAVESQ
The assay is described as follows: Tyrosine phosphatase selectivity (pNPP substrate), MEG2. The settings on record: MEG2, pNPP substrate. The format is biochemical. The method, then: (§1) This experiment evaluated the selectivity of the disclosed compounds against tyrosine phosphatases, including SHP1, HePTP, Laforin, LMWPTP, LYP, PTP1B, PRL2, SSU72, VHR, FAP1, STEP, CDC14A, CD45, MEG2, and PP5, all expressed and purified from E. coli.
(§2) Phosphatase activity was measured using p-nitrophenyl phosphate (pNPP) (Fisher Scientific) as the substrate in 50 mM 3,3-dimethylglutaric acid buffer (pH 7.0, containing 1 mM EDTA), with ionic strength adjusted to 0.15 M with NaCl. […] After 10-60 minutes, the reaction was quenched by adding 20 µL of 5 N NaOH. Wells without enzyme were used as controls for correction. The amount of the product, p-nitrophenol, was determined by measuring the absorbance at 405 nm using a Spectra MAX340 microplate spectrophotometer (Molecular Devices), with a molar extinction coefficient of 18000 M^-1cm^-1.
(§3) Data were analyzed using GraphPad Prism software. Dose-response curves were obtained by fitting data using the nonlinear S-curve regression Dose-response-inhibition equation, and IC50 values were calculated.
For orientation: IC50 means the point on the concentration scale where inhibition reaches its midpoint. `O=C(Nc1ccc(-c2oc3cc(F)c(-c4nnn[nH]4)cc3c2C2CCC2)cc1)C(=O)Nc1ccc(N2CCC3(CCOC3)CC2)cc1` [Example 125]: the IC50 turned out to be 8.54 µM.

`O=C(Nc1ccc(-c2ccsc2)cc1)C(=O)Nc1ccc(-c2cc3cnc(-c4nnn[nH]4)nc3n2C2CCC2)cc1` [Example 131] yielded a concentration for half-maximal inhibition (IC50) of 9.9 µM.

The assay is the same for the next values; noted with them: selectivity ratio MEG2 over SHP2.
In the case of `O=C(Nc1ccc(-c2oc3cc(F)c(-c4nnn[nH]4)cc3c2C2CCC2)cc1)C(=O)Nc1ccc(N2CCC3(CCOC3)CC2)cc1` [Example 125], the “IC50PTP/IC50SHP2 MEG2” value amounted to 167.5.

Regarding `O=C(Nc1ccc(-c2ccsc2)cc1)C(=O)Nc1ccc(-c2cc3cnc(-c4nnn[nH]4)nc3n2C2CCC2)cc1` [Example 131], the “IC50PTP/IC50SHP2 MEG2” value stood at 380.8.

The target of another assay is T2, PP5 (Homo sapiens, UniProt P53041).
T2 construct: made in house; host or cells: E. coli
T2 sequence (P53041 1-499): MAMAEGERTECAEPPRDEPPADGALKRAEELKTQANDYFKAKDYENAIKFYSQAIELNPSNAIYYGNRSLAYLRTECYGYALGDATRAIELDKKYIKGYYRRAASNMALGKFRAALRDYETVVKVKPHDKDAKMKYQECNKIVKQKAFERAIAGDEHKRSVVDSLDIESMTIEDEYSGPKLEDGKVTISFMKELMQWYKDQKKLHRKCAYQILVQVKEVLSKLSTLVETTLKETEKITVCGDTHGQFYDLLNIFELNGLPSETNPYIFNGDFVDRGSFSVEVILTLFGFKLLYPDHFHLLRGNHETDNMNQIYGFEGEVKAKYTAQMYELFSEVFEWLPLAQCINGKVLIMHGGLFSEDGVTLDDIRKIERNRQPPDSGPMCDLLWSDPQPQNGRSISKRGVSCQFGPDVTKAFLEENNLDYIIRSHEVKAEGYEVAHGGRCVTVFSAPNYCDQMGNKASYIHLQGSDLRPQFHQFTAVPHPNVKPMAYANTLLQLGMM
The assay is described as follows: Tyrosine phosphatase selectivity (pNPP substrate), PP5. It is filed as biochemical. Conditions: PP5, pNPP substrate. The method, then:
as §1, §2, §3
Compound `O=C(Nc1ccc(-c2oc3cc(F)c(-c4nnn[nH]4)cc3c2C2CCC2)cc1)C(=O)Nc1ccc(N2CCC3(CCOC3)CC2)cc1` [Example 125] returned a concentration for half-maximal inhibition (IC50) of more than 100 µM.

In the case of `O=C(Nc1ccc(-c2ccsc2)cc1)C(=O)Nc1ccc(-c2cc3cnc(-c4nnn[nH]4)nc3n2C2CCC2)cc1` [Example 131], the IC50 was more than 50 µM.

Still in this assay, the particulars now being: selectivity ratio PP5 over SHP2.
`O=C(Nc1ccc(-c2oc3cc(F)c(-c4nnn[nH]4)cc3c2C2CCC2)cc1)C(=O)Nc1ccc(N2CCC3(CCOC3)CC2)cc1` [Example 125]: the “IC50PTP/IC50SHP2 PP5” value is 1960.8.

As for `O=C(Nc1ccc(-c2ccsc2)cc1)C(=O)Nc1ccc(-c2cc3cnc(-c4nnn[nH]4)nc3n2C2CCC2)cc1` [Example 131], the “IC50PTP/IC50SHP2 PP5” value was determined as 1923.1.

Another assay addresses T3, CD45 (Homo sapiens, UniProt P08575).
T3 construct: made in house; host or cells: E. coli
T3 sequence (P08575 26-1306): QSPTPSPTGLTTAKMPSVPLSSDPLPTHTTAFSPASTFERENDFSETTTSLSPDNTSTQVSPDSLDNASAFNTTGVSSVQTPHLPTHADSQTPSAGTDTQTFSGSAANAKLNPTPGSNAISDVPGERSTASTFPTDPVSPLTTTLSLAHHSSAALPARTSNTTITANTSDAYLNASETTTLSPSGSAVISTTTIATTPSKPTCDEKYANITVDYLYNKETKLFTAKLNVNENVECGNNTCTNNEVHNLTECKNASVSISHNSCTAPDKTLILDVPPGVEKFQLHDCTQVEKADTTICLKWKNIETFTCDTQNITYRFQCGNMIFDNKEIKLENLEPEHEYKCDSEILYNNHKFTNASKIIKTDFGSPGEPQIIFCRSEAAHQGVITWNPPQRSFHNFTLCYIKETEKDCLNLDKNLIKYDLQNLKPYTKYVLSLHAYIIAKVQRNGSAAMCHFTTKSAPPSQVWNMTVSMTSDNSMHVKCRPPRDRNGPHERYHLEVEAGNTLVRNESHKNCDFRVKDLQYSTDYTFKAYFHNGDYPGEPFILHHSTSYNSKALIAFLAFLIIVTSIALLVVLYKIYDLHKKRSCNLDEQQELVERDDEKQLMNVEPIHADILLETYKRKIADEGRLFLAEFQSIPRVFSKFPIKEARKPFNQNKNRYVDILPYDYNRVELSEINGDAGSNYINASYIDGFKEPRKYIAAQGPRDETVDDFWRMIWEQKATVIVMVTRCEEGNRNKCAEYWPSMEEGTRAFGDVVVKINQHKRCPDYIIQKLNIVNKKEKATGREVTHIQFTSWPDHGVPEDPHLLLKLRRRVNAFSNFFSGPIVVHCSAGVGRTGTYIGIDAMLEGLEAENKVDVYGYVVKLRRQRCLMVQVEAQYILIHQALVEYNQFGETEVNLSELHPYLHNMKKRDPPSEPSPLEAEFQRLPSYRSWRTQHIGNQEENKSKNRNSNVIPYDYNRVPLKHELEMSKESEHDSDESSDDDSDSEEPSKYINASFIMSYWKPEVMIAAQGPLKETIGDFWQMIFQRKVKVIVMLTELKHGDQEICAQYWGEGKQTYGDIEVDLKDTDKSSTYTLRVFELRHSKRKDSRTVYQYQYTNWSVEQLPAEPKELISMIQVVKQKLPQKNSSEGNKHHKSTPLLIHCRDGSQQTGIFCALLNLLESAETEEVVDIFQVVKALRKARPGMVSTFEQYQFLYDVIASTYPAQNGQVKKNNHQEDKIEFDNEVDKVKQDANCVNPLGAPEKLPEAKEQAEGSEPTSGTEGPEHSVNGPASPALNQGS
The assay is described as follows: Tyrosine phosphatase selectivity (pNPP substrate), CD45. It is filed as biochemical. Conditions: CD45, pNPP substrate. As to the method:
as §1, §2, §3
`O=C(Nc1ccc(-c2oc3cc(F)c(-c4nnn[nH]4)cc3c2C2CCC2)cc1)C(=O)Nc1ccc(N2CCC3(CCOC3)CC2)cc1` [Example 125]: the IC50 was determined as 16.1 µM.

Compound `O=C(Nc1ccc(-c2ccsc2)cc1)C(=O)Nc1ccc(-c2cc3cnc(-c4nnn[nH]4)nc3n2C2CCC2)cc1` [Example 131] gave a 50% inhibitory concentration (IC50) of 25.2 µM.

Still in this assay, the particulars now being: selectivity ratio CD45 over SHP2.
`O=C(Nc1ccc(-c2oc3cc(F)c(-c4nnn[nH]4)cc3c2C2CCC2)cc1)C(=O)Nc1ccc(N2CCC3(CCOC3)CC2)cc1` [Example 125]: the “IC50PTP/IC50SHP2 CD45” value is 315.7.

On to `O=C(Nc1ccc(-c2ccsc2)cc1)C(=O)Nc1ccc(-c2cc3cnc(-c4nnn[nH]4)nc3n2C2CCC2)cc1` [Example 131], for which the “IC50PTP/IC50SHP2 CD45” value came out at 969.2.

A further assay deals with T4, VHR (Homo sapiens, UniProt P51452).
T4 construct: made in house; host or cells: E. coli
T4 sequence (P51452 whole entry, species assumed): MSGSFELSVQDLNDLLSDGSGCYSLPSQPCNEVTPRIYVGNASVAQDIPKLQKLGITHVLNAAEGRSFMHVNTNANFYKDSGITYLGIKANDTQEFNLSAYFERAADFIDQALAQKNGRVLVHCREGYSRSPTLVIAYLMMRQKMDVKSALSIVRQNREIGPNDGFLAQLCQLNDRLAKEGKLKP
The assay is described as follows: Tyrosine phosphatase selectivity (pNPP substrate), VHR. The format is biochemical. Conditions: VHR, pNPP substrate. As to the method:
as §1, §2, §3
Compound `Cn1c(-c2cccc(NC(=O)C(=O)Nc3ccc(-c4ccsc4)cc3)c2)c(I)c2cc(C(=O)O)c(O)cc21` [Example 11a-1, reference compound] gave an IC50 of 3.2 µM.

The compound `O=C(Nc1ccc(-c2oc3cc(F)c(-c4nnn[nH]4)cc3c2C2CCC2)cc1)C(=O)Nc1ccc(N2CCC3(CCOC3)CC2)cc1` [Example 125] gave an IC50 of 88.2 µM.

`O=C(Nc1ccc(-c2ccsc2)cc1)C(=O)Nc1ccc(-c2cc3cnc(-c4nnn[nH]4)nc3n2C2CCC2)cc1` [Example 131] registered an IC50 of 9.9 µM.

The assay is the same for the next values; noted with them: selectivity ratio VHR over SHP2.
In the case of `Cn1c(-c2cccc(NC(=O)C(=O)Nc3ccc(-c4ccsc4)cc3)c2)c(I)c2cc(C(=O)O)c(O)cc21` [Example 11a-1, reference compound], the “IC50PTP/IC50SHP2 VHR” value was found to be 29.6.

As to `O=C(Nc1ccc(-c2oc3cc(F)c(-c4nnn[nH]4)cc3c2C2CCC2)cc1)C(=O)Nc1ccc(N2CCC3(CCOC3)CC2)cc1` [Example 125], the “IC50PTP/IC50SHP2 VHR” value is 1729.4.

As for `O=C(Nc1ccc(-c2ccsc2)cc1)C(=O)Nc1ccc(-c2cc3cnc(-c4nnn[nH]4)nc3n2C2CCC2)cc1` [Example 131], the “IC50PTP/IC50SHP2 VHR” value came out at 380.8.
